{"source": "patent US8222404B2", "about": "“[1,2,4]Thiadiazin-3-yl acetic acid compound and methods of making the acetic acid compound” (Anadys Pharmaceuticals, Inc., priority 2008, dated 2012)", "data": [{"tested_on": "HCV Huh-luc/neo-ET replicon cells", "assay": "Luciferase-Based HCV Replicon Assay (EC50 (1b))", "assay_type": "cell-based", "settings": "Hepatitis C virus, 72 hours exposure, luciferase activity", "method_in_brief": "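Replicon cells seeded, then exposed 24 h later to a compound concentration series in triplicate for 72 h. Luciferase luminescence read; % inhibition vs no-compound control, with 100 nM BILN-2061 as background, used to derive EC50 (1b).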", "units": {"EC50": "nM"}, "values": [{"smiles": "CS(=O)(=O)NCc1csc2c1S(=O)(=O)N=C(C1=C(O)C3CCCCCC3N(Cc3cc(F)c(F)c(F)c3)C1=O)N2", "note": "(racemic) [Example 140, (rac-cis)-N-{3-[4-Hydroxy-2-oxo-1-(3,4,5-trifluoro-benzyl)-2,4a,5,6,7,8,9,9a-octahydro-1H-cyclohepta[b]pyridin-3-yl]-1,1-dioxo-1,4-dihydro-1λ^6-thieno[2,3-e][1,2,4]thiadiazin-7-ylmethyl}-methanesulfonamide]", "EC50": "> 1000"}, {"smiles": "CC(C)(C)CCN1C(=O)C(C2=NS(=O)(=O)c3c(CNS(C)(=O)=O)csc3N2)=C(O)[C@@H]2[C@H]3CC[C@H](C3)[C@@H]21", "note": "[Example 67, N-{3-[(1R,2S,7R,8S)-3-(3,3-Dimethyl-butyl)-6-hydroxy-4-oxo-3-aza-tricyclo[6.2.1.0^2,7]undec-5-en-5-yl]-1,1-dioxo-1,4-dihydro-1λ^6-thieno[2,3-e][1,2,4]thiadiazin-7-ylmethyl}-methanesulfonamide]", "EC50": "5 to 20"}, {"smiles": "CS(=O)(=O)NCc1csc2c1S(=O)(=O)N=C(C1=C(O)C3CCCCC3N(Cc3ccc(F)cc3)C1=O)N2", "note": "(racemic) [Example 116, (rac-cis)-N-{3-[1-(4-Fluoro-benzyl)-4-hydroxy-2-oxo-1,2,4a,5,6,7,8,8a-octahydro-quinolin-3-yl]-1,1-dioxo-1,4-dihydro-1λ^6-thieno[2,3-e][1,2,4]thiadiazin-7-ylmethyl}-methanesulfonamide]", "EC50": "20 to 100"}, {"smiles": "CC(C)CCN1C(=O)C(C2=NS(=O)(=O)c3c(CNS(C)(=O)=O)csc3N2)=C(O)C2C3CCC(O3)C21", "note": "(racemic) [Example 63, (rac-di-exo)-N-{3-[6-Hydroxy-3-(3-methyl-butyl)-4-oxo-11-oxa-3-aza-tricyclo[6.2.1.0^2,7]undec-5-en-5-yl]-1,1-dioxo-1,4-dihydro-1λ^6-thieno[2,3-e][1,2,4]thiadiazin-7-ylmethyl}-methanesulfonamide]", "EC50": "20 to 100"}, {"smiles": "CS(=O)(=O)NCc1csc2c1S(=O)(=O)N=C(C1=C(O)C3C4CCCC(CC4)C3N(Cc3ccc(F)cc3)C1=O)N2", "note": "(racemic) [Example 142, (rac-di-exo)-N-{3-[3-(4-Fluoro-benzyl)-6-hydroxy-4-oxo-3-aza-tricyclo[6.3.2.0^2,7]tridec-5-en-5-yl]-1,1-dioxo-1,4-dihydro-1λ^6-thieno[2,3-e][1,2,4]thiadiazin-7-ylmethyl}-methanesulfonamide]", "EC50": "20 to 100"}, {"smiles": "CS(=O)(=O)NCc1ccc2c(c1)S(=O)(=O)N=C(C1=C(O)[C@@H]3[C@H]4CC[C@H](C4)[C@@H]3N(Cc3ccc(F)cc3)C1=O)N2", "note": "[Example 3, N-{3-[(1R,2S,7R,8S)-3-(4-Fluoro-benzyl)-6-hydroxy-4-oxo-3-aza-tricyclo[6.2.1.0^2,7]undec-5-en-5-yl]-1,1-dioxo-1,4-dihydro-1λ^6-benzo[1,2,4]thiadiazin-7-ylmethyl}-methanesulfonamide]", "EC50": "100 to 1000"}, {"smiles": "CS(=O)(=O)NCc1csc2c1S(=O)(=O)N=C(C1=C(O)CC(C3CC3)N(Cc3ccc(F)cc3)C1=O)N2", "note": "(racemic) [Example 4, rac-N-{3-[6-Cyclopropyl-1-(4-fluoro-benzyl)-4-hydroxy-2-oxo-1,2,5,6-tetrahydro-pyridin-3-yl]-1,1-dioxo-1,4-dihydro-1λ^6-thieno[2,3-e][1,2,4]thiadiazin-7-ylmethyl}-methanesulfonamide]", "EC50": "100 to 1000"}, {"smiles": "CS(=O)(=O)NCc1csc2c1S(=O)(=O)N=C(C1=C(O)C3C4CC(C5CC54)C3N(Cc3ccc(F)cc3)C1=O)N2", "note": "(racemic) [Example 32, (rac-di-exo, di-exo)-N-{3-[3-(4-Fluoro-benzyl)-6-hydroxy-4-oxo-3-aza-tetracyclo[6.3.1.0^2,7.0^9,11]dodec-5-en-5-yl]-1,1-dioxo-1,4-dihydro-1λ^6-thieno[2,3-e][1,2,4]thiadiazin-7-ylmethyl}-methanesulfonamide]", "EC50": "≤ 5"}, {"smiles": "CS(=O)(=O)NCc1csc2c1S(=O)(=O)N=C(C1=C(O)[C@@H]3[C@@H]4CC[C@@H](C4)[C@@H]3N(Cc3ccc(F)cc3)C1=O)N2", "note": "[Example 89, N-{3-[(1S,2S,7R,8R)-3-(4-Fluoro-benzyl)-6-hydroxy-4-oxo-3-aza-tricyclo[6.2.1.0^2,7]undec-5-en-5-yl]-1,1-dioxo-1,4-dihydro-1λ^6-thieno[2,3-e][1,2,4]thiadiazin-7-ylmethyl}-methanesulfonamide]", "EC50": "≤ 5"}, {"smiles": "CS(=O)(=O)NCc1csc2c1S(=O)(=O)N=C(C1=C(O)[C@@H]3[C@@H]4CC[C@@H](C4)[C@@H]3N(Cc3cc(F)c(F)c(F)c3)C1=O)N2", "note": "[Example 57, N-{3-[(1S,2S,7R,8R)-6-Hydroxy-4-oxo-3-(3,4,5-trifluoro-benzyl)-3-aza-tricyclo[6.2.1.0^2,7]undec-5-en-5-yl]-1,1-dioxo-1,4-dihydro-1λ^6-thieno[2,3-e][1,2,4]thiadiazin-7-ylmethyl}-methanesulfonamide]", "EC50": "5 to 20"}, {"smiles": "CC1CN(Cc2ccc(F)cc2)C(=O)C(C2=NS(=O)(=O)c3c(CNS(C)(=O)=O)csc3N2)=C1O", "note": "(racemic) [Example 10, rac-N-{3-[1-(4-Fluoro-benzyl)-4-hydroxy-5-methyl-2-oxo-1,2,5,6-tetrahydro-pyridin-3-yl]-1,1-dioxo-1,4-dihydro-1λ^6-thieno[2,3-e][1,2,4]thiadiazin-7-ylmethyl}-methanesulfonamide]", "EC50": "100 to 1000"}, {"smiles": "CS(=O)(=O)NCc1csc2c1S(=O)(=O)N=C(C1=C(O)[C@@H]3C4CCC(CC4)[C@@H]3N(Cc3ccsc3)C1=O)N2", "note": "[Example 60, N-[3-((2S,7R)-6-Hydroxy-4-oxo-3-thiophen-3-ylmethyl-3-aza-tricyclo[6.2.2.0^2,7]dodec-5-en-5-yl)-1,1-dioxo-1,4-dihydro-1λ^6-thieno[2,3-e][1,2,4]thiadiazin-7-ylmethyl]-methanesulfonamide]", "EC50": "≤ 5"}, {"smiles": "CS(=O)(=O)NCc1csc2c1S(=O)(=O)N=C(C1=C(O)[C@@H]3CCC[C@@H]3N(Cc3ccc(F)cc3Cl)C1=O)N2", "note": "[Example 111, (4aR,7aS)-N-{3-[1-(2-Chloro-4-fluoro-benzyl)-4-hydroxy-2-oxo-2,4a,5,6,7,7a-hexahydro-1H-[1]pyrindin-3-yl]-1,1-dioxo-1,4-dihydro-1λ^6-thieno[2,3-e][1,2,4]thiadiazin-7-ylmethyl}-methanesulfonamide]", "EC50": "100 to 1000"}, {"smiles": "CS(=O)(=O)NCc1csc2c1S(=O)(=O)N=C(C1=C(O)[C@@H]3[C@H]4CC[C@H](C4)[C@@H]3N(Cc3ccc(F)c(F)c3)C1=O)N2", "note": "[Example 88, N-{3-[(1R,2S,7R,8S)-3-(3,4-Difluoro-benzyl)-6-hydroxy-4-oxo-3-aza-tricyclo[6.2.1.0^2,7]undec-5-en-5-yl]-1,1-dioxo-1,4-dihydro-1λ^6-thieno[2,3-e][1,2,4]thiadiazin-7-ylmethyl}-methanesulfonamide]", "EC50": "≤ 5"}, {"smiles": "CS(=O)(=O)NCc1csc2c1S(=O)(=O)N=C(C1=C(O)C3CCCCC3N(Cc3ccc(F)c(F)c3)C1=O)N2", "note": "(racemic) [Example 134, (rac-cis)-N-{3-[1-(3,4-Difluoro-benzyl)-4-hydroxy-2-oxo-1,2,4a,5,6,7,8,8a-octahydro-quinolin-3-yl]-1,1-dioxo-1,4-dihydro-1λ^6-thieno[2,3-e][1,2,4]thiadiazin-7-ylmethyl}-methanesulfonamide]", "EC50": "> 1000"}, {"smiles": "CC(C)CCn1nc(-c2cccs2)c(O)c(C2=NS(=O)(=O)c3c(CNS(C)(=O)=O)csc3N2)c1=O", "note": "[Example 28, N-{3-[5-Hydroxy-2-(3-methyl-butyl)-3-oxo-6-thiophen-2-yl-2,3-dihydro-pyridazin-4-yl]-1,1-dioxo-1,4-dihydro-1λ^6-thieno[2,3-e][1,2,4]thiadiazin-7-ylmethyl}-methanesulfonamide]", "EC50": "100 to 1000"}, {"smiles": "CS(=O)(=O)NCc1csc2c1S(=O)(=O)N=C(C1=C(O)[C@@H]3[C@@H]4CC[C@@H](C4)[C@@H]3N(CCC3CC3)C1=O)N2", "note": "[Example 107, N-{3-[(1S,2S,7R,8R)-3-(2-Cyclopropyl-ethyl)-6-hydroxy-4-oxo-3-aza-tricyclo[6.2.1.0^2,7]undec-5-en-5-yl]-1,1-dioxo-1,4-dihydro-1λ^6-thieno[2,3-e][1,2,4]thiadiazin-7-ylmethyl}-methanesulfonamide]", "EC50": "20 to 100"}, {"smiles": "CS(=O)(=O)NCc1csc2c1S(=O)(=O)N=C(C1=C(O)C3C4C=CC(C4)C3NC1=O)N2", "note": "(racemic) [Example 84, (rac-di-exo)-N-[3-(6-Hydroxy-4-oxo-3-aza-tricyclo[6.2.1.0^2,7]undeca-5,9-dien-5-yl)-1,1-dioxo-1,4-dihydro-1λ^6-thieno[2,3-e][1,2,4]thiadiazin-7-ylmethyl]-methanesulfonamide]", "EC50": "> 1000"}, {"smiles": "CC(C)CCN1C(=O)C(C2=NS(=O)(=O)c3c(CNS(C)(=O)=O)csc3N2)=C(O)[C@@H]2[C@H]3CC[C@H](C3)[C@@H]21", "note": "[Example 68, N-{3-[(1R,2S,7R,8S)-6-Hydroxy-3-(3-methyl-butyl)-4-oxo-3-aza-tricyclo[6.2.1.0^2,7]undec-5-en-5-yl]-1,1-dioxo-1,4-dihydro-1λ^6-thieno[2,3-e][1,2,4]thiadiazin-7-ylmethyl}-methanesulfonamide]", "EC50": "5 to 20"}]}]}
